According to publication PMC9506420, “Biological Evaluation of 3-Azaspiro[Bicyclo[3.1.0]Hexane-2,5′-Pyrimidines] as Potential Antitumor Agents” (International Journal of Molecular Sciences, 2022):
Several values for one entry are separate records, joined by “and”; a condition that tells them apart may be missing. Equal values may be shown once. Read-outs that look alike come from different tables or passages of the source.

Legend:
[1] = tested on: human cervical carcinoma (HeLa) cell line; experiment: MTS antiproliferative (cytotoxicity) assay, HeLa; format: cell-based; settings: HeLa; for SI (selectivity index), HeLa: Vero as reference cell line; for IC50: Homo sapiens
Protocol: (§1) The cytotoxicity of synthesized 3-azaspiro[bicyclo[3.1.0]hexane-2,5′-pyrimidines] 4 against human erythroleukemia (K562), cervical carcinoma (HeLa), and T lymphocyte (Jurkat), as well as mouse colon carcinoma (CT26) and African green monkey kidney epithelial (Vero) cell lines as reference, was evaluated in vitro by the standard MTS assay for 24 and 72 h.
(§2) All the cell lines (human cervical carcinoma (HeLa), erythroleukemia (K-562), and T lymphocyte (Jurkat) as well as mouse colon carcinoma (CT26) and African green monkey kidney epithelial (Vero)) were obtained from the cell repository “Vertebrate cell culture collection” (supported by the Ministry of Science and Higher Education of the Russian Federation, agreement №075-15-2021-683, Institute of Cytology, Russian Academy of Sciences, Saint Petersburg, Russia). HeLa, Jurkat, and Vero cells were cultured in DMEM (HyClone, South Logan, UT, USA) supplemented with 10% (v/v) fetal bovine serum (Hyclone, GE Healthcare Life Sciences, Logan, UT, USA), and gentamicin (Sigma-Aldrich, St. Louis, MO, USA) at 37 °C in a humidified atmosphere with 5% CO2. K-562 and CT26 cells were grown at RPMI medium (Hyclone, GE Healthcare Life Sciences, Logan, UT, USA), with the same supplements and conditions.
(§3) To evaluate the in vitro toxicity of compounds synthesized, cells were seeded into 96-well plates at a density of 5 × 10^3 cells per well. On the next day, tested compounds were added to the wells at concentrations ranging from […], followed by incubation for 1 and 3 days. Cell proliferation was determined by adding 20 μL of MTS reagent (BioVision, Milpitas, CA, USA) stock solution per well. Each plate was incubated for 2 h at 37 °C in a humidified, 5% CO2 atmosphere. The plates were then read at 495 nm using plate spectrophotometer (Multiskan GO, Thermo Fisher Scientific, Waltham, MA, USA). All samples were measured in triplicates.

[2] = tested on: African green monkey kidney epithelial (Vero) cell line; experiment: MTS antiproliferative (cytotoxicity) assay, Vero (reference); format: cell-based; settings: Chlorocebus sabaeus, Vero
Protocol: as §1, §2, §3

HeLa cells [3] = experiment: Annexin V-FITC/DAPI cell death analysis, HeLa; format: cell-based, human; settings: 10 μg/mL, 72 h; for Necrotic Cells, %: control 0.5 ± 0.3; for Early Apoptotic Cells, %: control 4.5 ± 0.7; for Late Apoptotic Cells, %: control 5.9 ± 0.4; for Live Cells, %: control 89.0 ± 0.7
Protocol: The results of cell death detection after the exposure of the HeLa and CT26 cell lines to spiro-fused cycloadducts 4c–i at a dose of 10 μg/mL for 72 h, using Annexin V-FITC/DAPI staining, are shown in Figure 6 and Figure 7, respectively.
Cells were seeded in 24-well plates, 5 × 10^4 cells per well. After 24 h incubation, cells were treated with compounds 4c–i for 72 h. Then, cells were washed, harvested by trypsinisation, stained with Annexin V-FITC ([…]) and DAPI (Thermo Fisher Scientific, Waltham, MA, USA), in accordance with the protocol of the manufacturer, and analyzed by flow cytometry. The proapoptotic effect of azaspiro[bicyclo[3.1.0]hexane-2,5′-pyrimidines] 4c–i was evaluated by an Annexin V-FITC/DAPI (AV/DAPI) dual-staining assay to examine the occurrence of phosphatidylserine externalization, which facilitated the detection of live cells (lower-left quadrant; AV−/DAPI−), early apoptotic cells (upper-left quadrant; AV+/DAPI−), late apoptotic cells (upper-right quadrant; AV+/DAPI+), and necrotic cells (lower-right quadrant; AV−/DAPI+).

[4] = tested on: human erythroleukemia (K562) cell line; experiment: MTS antiproliferative (cytotoxicity) assay, K562; format: cell-based; settings: for IC50: Homo sapiens; for SI (selectivity index), K562: Vero as reference cell line
Protocol: as §1, §2, §3

[5] = tested on: human T lymphocyte (Jurkat) cell line; experiment: MTS antiproliferative (cytotoxicity) assay, Jurkat; format: cell-based; settings: for IC50: Homo sapiens, MTS; for SI (selectivity index), Jurkat: Vero as reference cell line
Protocol: The cytotoxicity of synthesized 3-azaspiro[bicyclo[3.1.0]hexane-2,5′-pyrimidines] 4 against human erythroleukemia (K562), cervical carcinoma (HeLa), and T lymphocyte (Jurkat), as well as mouse colon carcinoma (CT26) and African green monkey kidney epithelial (Vero) cell lines as reference, was evaluated in vitro by the standard MTS assay for 24 and 72 h. The results are presented in Figure 1, Figure 2, Figure 3, Figure 4 and Figure 5 (data on all, tested on K562, HeLa, and CT26 cell lines’ compounds, are given at SI, Figures S1–S3). […] Replacement of the phenyl group by either the carboxymethyl or N-isopropylcarbamoyl group has led to a significant decrease in the activity of spiro-fused cycloadducts comprising azabicyclo[3.1.0]hexane and alloxane moieties.
as §2, §3

HeLa cells [6] = experiment: Cell cycle distribution by flow cytometry (propidium iodide), HeLa; format: cell-based, human; settings: HeLa, 10 μg/mL, 24 h; for SubG1 (%): control 2.3 ± 0.4; for G2/M (%): control 12.2 ± 1.3; for S (%): control 12.5 ± 1.7; for G0/G1 (%): control 73.1 ± 2.6
Protocol: One of the indicators of the influence of biologically active products on the cells is the changed distribution of cells during different stages of the cell cycle. In this work, recently synthesized compounds were tested using flow cytometry for their effect on the distribution of cells in the cell cycle (G0/G1, G2/M, and S). Figure 8, Figure 9 and Figure 10 and Table 3 show the typical data after processing the results from three replicates of each experiment.
The distribution of HeLa and CT26 cells in the G0/G1-, S-, and G2/M-phases of the cell cycle was obtained by quantification of DNA content in propidium-iodide-stained cells using flow cytometry. Briefly, cells were seeded in 24-well plates at a density of 5 × 10^4 cells per well. After 24 h incubation, cells were exposed to 10 μg/mL of compounds 4c–i (the structure is provided in Scheme 1) for 24 h. The effects of compounds 4d, 4e, 4g, 4h were additionally tested at concentrations of 2 and 5 μg/mL. After incubation with drugs, the cells were detached by exposure to trypsin-EDTA for 5 min at 37 °C and then collected by pipetting. This was followed by treatment with 0.2 mg/mL saponin (Fluka, Waltham, MA, USA), 0.25 mg/mL RNase (Sigma-Aldrich, St. Louis, MO, USA), and 0.05 mg/mL propidium iodide (Invitrogen, Carlsbad, CA, USA). After washing, the samples were analyzed by standard flow cytometer (BD FACSCanto II, Becton Dickinson, San Jose, CA, USA). Then, 10,000 events were acquired for the sample. Data processing was performed using BD FACSDiva 9.0 software.

[7] = tested on: mouse colon carcinoma (CT26) cell line; experiment: MTS antiproliferative (cytotoxicity) assay, CT26; format: cell-based; settings: for SI (selectivity index), CT26: Vero as reference cell line; for IC50: Mus musculus
Protocol: as §1, §2, §3

[8] = 24 h, read-out: IC50, HeLa, 24 h
[9] = 72 h, read-out: IC50, HeLa, 72 h
[10] = 24 h, read-out: IC50, Vero, 24 h
[11] = 72 h, read-out: IC50, Vero, 72 h
[12] = K562, 24 h, read-out: IC50, K562, 24 h
[13] = K562, 72 h, read-out: IC50, K562, 72 h
[14] = 24 h, read-out: IC50, Jurkat, 24 h
[15] = 72 h, read-out: IC50, Jurkat, 72 h
[16] = CT26, 24 h, read-out: IC50, CT26, 24 h
[17] = CT26, 72 h, read-out: IC50, CT26, 72 h

| Structure (SMILES) | SI (selectivity index), HeLa [1] | IC50 [1, 8] [µM] | IC50 [1, 9] [µM] | IC50 [2, 10] [µM] | IC50 [2, 11] [µM] | Necrotic Cells, % (HeLa cells [3]) [%] | Early Apoptotic Cells, % (HeLa cells [3]) [%] | Late Apoptotic Cells, % (HeLa cells [3]) [%] | Live Cells, % (HeLa cells [3]) | IC50 [4, 12] [µM] | IC50 [4, 13] [µM] | SI (selectivity index), K562 [4] | IC50 [5, 14] [µM] | IC50 [5, 15] [µM] | SI (selectivity index), Jurkat [5] | SubG1 (%) (HeLa cells [6]) | G2/M (%) (HeLa cells [6]) | S (%) (HeLa cells [6]) | G0/G1 (%) (HeLa cells [6]) | SI (selectivity index), CT26 [7] | other results |
| --- | --- | --- | --- | --- | --- | --- | --- | --- | --- | --- | --- | --- | --- | --- | --- | --- | --- | --- | --- | --- | --- |
| CC(C)C[C@@H]1NC2(C(=O)NC(=O)NC2=O)[C@]2(c3ccccc3)[C@@H](c3ccccc3)[C@]12c1ccccc1 [Compound 4f] | 0.5 | 19 ± 2 | 23 ± 6 | 48 ± 6 | 10 ± 2 | 2.1 ± 1.3 | 2.9 ± 0.1 | 4.1 ± 0.5 | 90.9 ± 1.6% | 17 ± 4 | 6 ± 2 | 1.7 | 11 ± 2 | 9 ± 2 | 1.2 | 10.5 ± 2.0 | 12.8 ± 1.3 | 15.2 ± 1.2 | 61.5 ± 3.3 | 1.0 | rate of cell death in HeLa vs control (HeLa cells [3]): not different from the control; IC50 [7, 16]: 17 ± 2 µM; IC50 [7, 17]: 10 ± 2 µM |
| CCC[C@@H]1NC2(C(=O)NC(=O)NC2=O)[C@]2(c3ccccc3)[C@@H](c3ccccc3)[C@]12c1ccccc1 [Compound 4d] | 1.1 | 17 ± 2 | 15 ± 2 | 48 ± 4 | 16 ± 2 | 3.6 ± 1.8 | 11.6 ± 0.2 | 38.1 ± 16.8 | 46.8% and 46.8 ± 18.4 % | 21 ± 4 | 9 ± 2 | 1.8 | 15 ± 2 | 13 ± 2 | 1.3 | 18.1 ± 1.0 | 8.4 ± 1.5 | 15.5 ± 1.1 | 58.0 ± 4.4 | 1.3 | IC50 [7, 16]: 17 ± 2 µM; IC50 [7, 17]: 13 ± 2 µM |
